Results from PMC5653977 (EMBO Molecular Medicine, 2017).
Where a name gives a salt, the structure may show the parent alone.

Test system: NRG1-ERBB4 signaling
Test: Nrg1-ERBB4-PIK3R1 split TEV co-culture compound screen of the NIH Clinical Collection
Assay type: cell-based, human
Conditions: not given

SMILES	Z-SCORE
Oc1ccc2c3c1O[C@H]1[C@@H](O)CC[C@@]4(O)[C@@H](C2)N(CC2CCC2)CC[C@]314 [Nalbuphine]	-1.86

Same assay, conditions: NIH Clinical Collection NCC-003 raw data; compounds ranked by Z-score; 'flagged' given instead of a Z-score

SMILES	Z-SCORE
CC12CC3CC(C)(C1)CC(N)(C3)C2 [Memantine hydrochloride, reference compound]	-1.15
CCOC(=O)C1=C(C)NC(C)=C(C(=O)OC)C1c1cccc([N+](=O)[O-])c1 (centres unmarked) [NITRENDIPINE]	-1.82

Same assay, conditions: compound screen of the NIH Clinical Collection, sheet raw data NCC-003; compounds ranked by Z-score

SMILES	Z-SCORE
CN1CCCCC1CCN1c2ccccc2Sc2ccc([S+](C)[O-])cc21 (centres unmarked) [Mesoridazine]	-0.53
C[C@]12CCC(=O)C[C@@H]1CC[C@@H]1[C@@H]2CC[C@@]2(C)[C@H]1CC[C@]2(C)O [Mestanolone]	1.19
C[C@]12CCC(=O)C=C1CC[C@@H]1[C@@H]2CC[C@@]2(C)[C@H]1CC[C@]2(C)O [Methyltestosterone]	-0.41
CC1CCN(CCCC(=O)c2ccc(F)cc2)CC1 [Metylperon]	0.36
CCN(CC)C(=O)C1(c2ccccc2)CC1CN (centres unmarked) [Milnacipran]	0.97
NC(=O)C[S+]([O-])C(c1ccccc1)c1ccccc1 (centres unmarked) [Modafinil]	0.43
COc1ccccc1N1CCN(CC(O)COc2cccc3ccccc23)CC1 (centres unmarked) [NAFTOPIDIL]	0.24
COc1ccc2cc([C@H](C)C(=O)O)ccc2c1 [NAPROXEN SODIUM]	0.35
CC(C)[C@H]1CC[C@H](C(=O)N[C@H](Cc2ccccc2)C(=O)O)CC1 [NATEGLINIDE]	-0.03
Cc1c(O)cccc1C(=O)N[C@@H](CSc1ccccc1)[C@H](O)CN1C[C@H]2CCCC[C@H]2C[C@H]1C(=O)NC(C)(C)C [NELFINAVIR MESYLATE]	0.24
O=C(CCNNC(=O)c1ccncc1)NCc1ccccc1 [NIALAMIDE]	1.7
O=C(NCCO[N+](=O)[O-])c1cccnc1 [NICORANDIL]	-0.09
NC(=O)c1cccnc1 [NICOTINAMIDE]	2.52
COC(=O)C1=C(C)NC(C)=C(C(=O)OC)C1c1ccccc1[N+](=O)[O-] [NIFEDIPINE]	2.68
Cl.Cn1c(NCCN(CCO)CCCc2ccc([N+](=O)[O-])cc2)cc(=O)n(C)c1=O [NIFEKALANT HCl]	1.92
COCCOC(=O)C1=C(C)NC(C)=C(C(=O)OC(C)C)C1c1cccc([N+](=O)[O-])c1 (centres unmarked) [NIMODIPINE]	-0.83
COC(=O)C1=C(C)NC(C)=C(C(=O)OCC(C)C)C1c1ccccc1[N+](=O)[O-] (centres unmarked) [NISOLDIPINE]	2.32
CC(=O)Oc1ccccc1C(=O)Nc1ncc([N+](=O)[O-])s1 [NITAZOXANIDE]	1.04
CNC(=C[N+](=O)[O-])NCCSCc1csc(CN(C)C)n1 [NIZATIDINE]	-0.53
CCCCN1CCCC1CNC(=O)c1cc(C#N)c2ccccc2c1OC (centres unmarked) [Nafadotride]	-0.24
Oc1ccc2c3c1O[C@H]1c4[nH]c5ccccc5c4C[C@@]4(O)[C@@H](C2)N(CC2CC2)CC[C@]314 [Naltrindole]	-0.41
CCc1nn(CCCN2CCN(c3cccc(Cl)c3)CC2)c(=O)n1CCOc1ccccc1 [Nefazodone]	-0.63
CN1C(=O)CN=C(c2ccccc2)c2cc([N+](=O)[O-])ccc21 [Nimetazepam]	0.16
O=C1CN=C(c2ccccc2)c2cc([N+](=O)[O-])ccc2N1 [Nitrazepam]	-0.23
COc1ccc(-c2cc(=O)c3c(OC)c(OC)c(OC)c(OC)c3o2)cc1OC [Nobiletin]	-0.05
c1cncc([C@@H]2CCCN2)c1 [Nornicotine]	0.27

Same assay, conditions: compounds at 10 μM, 24 h; PC12 split TEV assay cells co-cultured with Nrg1-expressing PC12 cells; analysed with cellHTS2

SMILES	Z-SCORE
OC(c1cc(C(F)(F)F)nc2c(C(F)(F)F)cccc12)C1CCCCN1 (centres unmarked) [Mefloquine hydrochloride, reference compound]	flagged
Cc1cnc(NC(=O)C2=C(O)c3ccccc3S(=O)(=O)N2C)s1 [Meloxicam, reference compound]	0.24
CC12CC3CC(C)(C1)CC(N)(C3)C2 [Memantine hydrochloride, reference compound]	0.5
S=c1[nH]cnc2nc[nH]c12 [Mercaptopurine, reference compound]	0
O=S(=O)(O)CCS [Mesna, reference compound]	0.04
CN(C)C(=O)Oc1ccc[n+](C)c1 [Mestinon, reference compound]	-0.37
CC(C)NCC(O)c1cc(O)cc(O)c1 (centres unmarked) [Metaproterenol, reference compound]	-0.11
CC(=O)/N=c1/sc(S(N)(=O)=O)nn1C [Methazolamide, reference compound]	0.38
Cn1cc[nH]c1=S [Methimazole, reference compound]	3
COc1ccccc1OCC(O)COC(N)=O (centres unmarked) [Methocarbamol, reference compound]	0.65
COc1c2occc2cc2ccc(=O)oc12 [Methoxsalen, reference compound]	0.16
C[C@](N)(Cc1ccc(O)c(O)c1)C(=O)O [Methyldopa, reference compound]	0.63
Cc1cccc(C)c1OCC(C)N (centres unmarked) [Mexitil, reference compound]	1.1
Cc1onc(-c2ccccc2)c1C(=O)N[C@@H]1C(=O)N2[C@@H]1SC(C)(C)[C@@H]2C(=O)[O-].O.[Na+] [Micropenin, reference compound]	0.25
Nc1cc(N2CCCCC2)nc(N)[n+]1[O-] [Minoxidil, reference compound]	0.25
CC(=O)OCC[N+](C)(C)C [Miochol, reference compound]	0.45
CCc1c(C)[nH]c2c1C(=O)C(CN1CCOCC1)CC2 (centres unmarked) [Moban, reference compound]	-0.44
C/C(=C\C(=O)OCCCCCCCCC(=O)O)C[C@@H]1OC[C@H](C[C@@H]2O[C@H]2[C@@H](C)[C@H](C)O)[C@@H](O)[C@H]1O [Mupirocin, reference compound]	0.71
COc1ccc2cc(CCC(C)=O)ccc2c1 [NABUMETONE, reference compound]	1.61
CC(C)(C)NCC(O)COc1cccc2c1CC(O)C(O)C2 (centres unmarked) [NADOLOL, reference compound]	0.1
C=CCN1CC[C@]23c4c5ccc(O)c4O[C@H]2C(=O)CC[C@@]3(O)[C@H]1C5 [NALOXONE HYDROCHLORIDE, reference compound]	-0.39
O=C1CC[C@@]2(O)[C@H]3Cc4ccc(O)c5c4[C@@]2(CCN3CC2CC2)[C@H]1O5 [NALTREXONE HYDROCHLORIDE, reference compound]	0.59
CN1CCC[C@H]1c1cccnc1 [NICOTINE, reference compound]	-0.12
O=C1CN(/N=C/c2ccc([N+](=O)[O-])o2)C(=O)N1 [NITROFURANTOIN, reference compound]	-0.02
CCn1cc(C(=O)O)c(=O)c2cc(F)c(N3CCNCC3)cc21 [NORFLOXACIN, reference compound]	-0.08
N[C@H](Cc1cc(I)c(Oc2ccc(O)c(I)c2)c(I)c1)C(=O)O [NSC46046, reference compound]	-1.87
CCn1cc(C(=O)O)c(=O)c2ccc(C)nc21 [Nalidixic Acid, reference compound]	0.31
O=C(O)c1cccnc1 [Nicotinic Acid, reference compound]	-0.31
Cc1ccccc1C(OCCN(C)C)c1ccccc1 (centres unmarked) [Norflex, reference compound]	0.74
CC(C)N(CCC(C(N)=O)(c1ccccc1)c1ccccn1)C(C)C (centres unmarked) [Norpace, reference compound]	0.73
